Data from ChEMBL document CHEMBL1201862, “PubChem BioAssay data set” (2004).
Activity calls are given as the source filed them. Peptide text beside a SMILES is read from it. * marks the point of attachment. Cbz = O=C(OCc1ccccc1)*

Target: T1, RNA-binding protein pos-1 (Caenorhabditis elegans, UniProt G5EF15)
T1 sequence (G5EF15 whole entry): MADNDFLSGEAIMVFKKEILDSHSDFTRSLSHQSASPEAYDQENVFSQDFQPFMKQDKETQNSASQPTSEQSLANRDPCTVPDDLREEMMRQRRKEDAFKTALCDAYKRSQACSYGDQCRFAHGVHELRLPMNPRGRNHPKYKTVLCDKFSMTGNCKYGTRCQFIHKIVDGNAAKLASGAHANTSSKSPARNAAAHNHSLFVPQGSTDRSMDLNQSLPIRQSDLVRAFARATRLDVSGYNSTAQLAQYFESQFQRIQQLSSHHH
Assay: disruptors of C. elegans POS-1 RNA interaction – biochemical, fluorescence polarization, dose response (AID 1964);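 note: purified POS-1 fused to maltose binding protein made in E. coli; potency of compounds blocking POS-1 binding to fluorescent RNA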
Settings: not given

Row | SMILES | EC50
1 | Cc1cccn2c(=O)c3cc(C(=O)NC4CCCC4)c(=N)n(CCc4ccccc4)c3nc12 | > 300 µM (not active)
2 | COc1cccc(=O)c2c(C)oc(C)c12 | > 300 µM (not active)
3 | CN1C(=O)C(=Cc2c[nH]c3ccccc23)C(=O)N(C)C1=O | 52.9 µM (active)
4 | C=CCN1C(=O)NC(=O)/C(=C/c2c(CCN(C)C(=O)c3ccccc3)cc3c(c2OC)OCO3)C1=O | > 300 µM (not active)
5 | COc1ccc(NC(=O)/C=C/c2cccc(Br)c2)cn1 | 16 µM (active)

Target: Cytochrome P450 2C9 (Homo sapiens, UniProt P11712)
Settings: not given

Sequence of Cytochrome P450 2C9 (P11712 whole entry): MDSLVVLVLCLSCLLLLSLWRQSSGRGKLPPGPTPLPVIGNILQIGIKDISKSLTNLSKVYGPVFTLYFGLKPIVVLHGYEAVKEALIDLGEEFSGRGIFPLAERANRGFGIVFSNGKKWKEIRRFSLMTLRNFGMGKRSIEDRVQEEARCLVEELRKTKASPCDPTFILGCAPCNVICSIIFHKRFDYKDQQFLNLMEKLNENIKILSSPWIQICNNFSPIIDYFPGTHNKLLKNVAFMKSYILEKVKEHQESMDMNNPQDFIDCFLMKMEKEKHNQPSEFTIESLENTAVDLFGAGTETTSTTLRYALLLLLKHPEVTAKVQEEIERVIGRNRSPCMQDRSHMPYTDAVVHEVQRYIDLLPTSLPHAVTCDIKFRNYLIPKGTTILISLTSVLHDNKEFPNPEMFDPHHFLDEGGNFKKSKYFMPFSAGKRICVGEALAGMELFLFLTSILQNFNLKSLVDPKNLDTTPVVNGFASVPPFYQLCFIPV

Row | SMILES | AC50
6 | O=C(O)c1nn(-c2ccccc2)ccc1=O | 0.398 µM (inconclusive)
7 | Cc1n[nH]c(C)c1S(=O)(=O)N1CCOCC1 | 17.8 µM (inconclusive)
8 | Cc1ccc(OCC(=O)Nc2ccccc2-c2ccccc2)cc1 | 11.2 µM (inconclusive)
9 | COc1ccc(-c2nc(C(=O)N3CCN(C)CC3)sc2-c2ccc(OC)cc2)cc1 [FR-122047] | 20 µM (inconclusive)
10 | Cc1ccccc1-c1nc(C[S+]([O-])CC(=O)NCCN2CCN(Cc3ccccc3)CC2)c(C)o1 (centres undefined) | 39.8 µM (inconclusive)
11 | O=C(N/N=C/c1ccc(Cl)cc1)Nc1ccccc1 | 25.1 µM (inconclusive)

Target: T2, Polyadenylate-binding protein 1 (Homo sapiens, UniProt P11940)
Assay: MLLE binding blockers, Cy5 peptide tracer – biochemical, fluorescence polarization, Cy5-PAM2 peptide, secondary, miRNA deadenylation inhibitor project, dose response (AID 602260)
Type: functional
Settings: read-out: IC50_Mean

T2 sequence (P11940 whole entry): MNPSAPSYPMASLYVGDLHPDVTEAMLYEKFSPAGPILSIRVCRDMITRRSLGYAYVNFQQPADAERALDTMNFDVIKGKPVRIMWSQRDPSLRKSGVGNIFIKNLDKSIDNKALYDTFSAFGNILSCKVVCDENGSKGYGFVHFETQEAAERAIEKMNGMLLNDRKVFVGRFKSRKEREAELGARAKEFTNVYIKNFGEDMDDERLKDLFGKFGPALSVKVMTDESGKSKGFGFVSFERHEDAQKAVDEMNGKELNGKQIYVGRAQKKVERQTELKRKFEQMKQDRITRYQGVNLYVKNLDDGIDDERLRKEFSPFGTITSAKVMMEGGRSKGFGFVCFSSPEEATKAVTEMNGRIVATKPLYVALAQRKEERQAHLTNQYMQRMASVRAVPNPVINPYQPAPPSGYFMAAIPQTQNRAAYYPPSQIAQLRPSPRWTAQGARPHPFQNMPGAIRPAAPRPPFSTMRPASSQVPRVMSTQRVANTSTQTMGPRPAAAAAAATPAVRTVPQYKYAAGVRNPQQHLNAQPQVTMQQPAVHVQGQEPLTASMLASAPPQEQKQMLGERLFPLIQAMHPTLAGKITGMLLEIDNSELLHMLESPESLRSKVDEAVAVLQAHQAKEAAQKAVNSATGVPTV

Row | SMILES | IC50
12 | Cc1ccc(S(=O)(=O)CCSc2cccc(C(=O)O)c2)cc1 | > 66 µM (inactive)
13 | COc1ccccc1C1CC(c2cccs2)=Nc2ccccc2S1 (centres undefined) | > 66 µM (inactive)
14 | O=S(=O)(NC(=S)NC1CCCCC1)c1ccccc1 | > 66 µM (inactive)

Target: Cytochrome P450 3A4 (Homo sapiens, UniProt P08684);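 note: CYP3A4 tested as one member of a cytochrome P450 panel screen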
Settings: not given

Sequence of Cytochrome P450 3A4 (P08684 whole entry): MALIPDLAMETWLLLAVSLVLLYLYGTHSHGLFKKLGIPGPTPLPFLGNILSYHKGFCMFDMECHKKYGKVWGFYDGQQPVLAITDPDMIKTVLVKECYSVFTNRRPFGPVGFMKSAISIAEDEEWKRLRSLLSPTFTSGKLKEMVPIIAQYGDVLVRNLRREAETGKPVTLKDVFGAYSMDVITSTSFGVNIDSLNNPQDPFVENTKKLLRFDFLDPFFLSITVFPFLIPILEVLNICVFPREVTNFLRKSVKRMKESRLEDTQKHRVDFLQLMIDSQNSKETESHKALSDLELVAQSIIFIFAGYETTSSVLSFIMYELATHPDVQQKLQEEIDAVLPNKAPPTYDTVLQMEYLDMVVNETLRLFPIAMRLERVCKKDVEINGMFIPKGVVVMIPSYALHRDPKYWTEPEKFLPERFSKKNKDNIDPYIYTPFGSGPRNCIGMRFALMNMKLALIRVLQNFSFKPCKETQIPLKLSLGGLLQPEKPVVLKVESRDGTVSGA

Row | SMILES | AC50
15 | COc1ccc(-c2nc3cnc(Oc4ccccc4)nc3n(C3CC3)c2=O)cc1 | 15.8 µM (inconclusive)
16 | C=O.C[C@@H]1Cc2ccccc2N1NC(=O)c1ccc(Cl)c([S+](N)[O-])c1 (some centres undefined) | 5.01 µM (inconclusive)
17 | COC(=O)CCC(NC(=O)OCc1ccccc1)C(=O)NC(CC(C)C)C(=O)OC (centres undefined) (Cbz-Glu(OMe)-Leu-OMe; configuration not given here) | 14.1 µM (inconclusive)
18 | C[C@@H](C(=O)O)/C(=C/c1ccc2c(c1)OCO2)C(=O)O | 6.31 µM (inconclusive)
19 | COc1ccc(-c2nc(C(=O)N3CCN(C)CC3)sc2-c2ccc(OC)cc2)cc1 [FR-122047] | 7.94 µM (inconclusive)
20 | CCCN(CCC)C(=O)Cc1c(-c2ccc(Cl)cc2)nc2c(Cl)cc(Cl)cn12 [ALPDEM] | 0.794 µM (inconclusive)
21 | O=C(CCc1nc(-c2ccccc2)c(-c2ccccc2)o1)OCc1ccc(Cl)cc1 | 35.5 µM (inconclusive)
22 | O=c1cnc2cnc(Oc3cccc(Cl)c3)nc2n1Cc1ccc(F)cc1 | 25.1 µM (inconclusive)
23 | O=C(N/N=C/c1ccc(Cl)cc1)Nc1ccccc1 | 12.6 µM (inconclusive)
24 | Cn1cc(-c2nc3cnc(N4CCOCC4)nc3n(CCC#N)c2=O)c2ccccc21 | 15.8 µM (inconclusive)

Target: T3, Zinc finger protein mex-5 (Caenorhabditis elegans, UniProt Q9XUB2)
T3 sequence (Q9XUB2 whole entry): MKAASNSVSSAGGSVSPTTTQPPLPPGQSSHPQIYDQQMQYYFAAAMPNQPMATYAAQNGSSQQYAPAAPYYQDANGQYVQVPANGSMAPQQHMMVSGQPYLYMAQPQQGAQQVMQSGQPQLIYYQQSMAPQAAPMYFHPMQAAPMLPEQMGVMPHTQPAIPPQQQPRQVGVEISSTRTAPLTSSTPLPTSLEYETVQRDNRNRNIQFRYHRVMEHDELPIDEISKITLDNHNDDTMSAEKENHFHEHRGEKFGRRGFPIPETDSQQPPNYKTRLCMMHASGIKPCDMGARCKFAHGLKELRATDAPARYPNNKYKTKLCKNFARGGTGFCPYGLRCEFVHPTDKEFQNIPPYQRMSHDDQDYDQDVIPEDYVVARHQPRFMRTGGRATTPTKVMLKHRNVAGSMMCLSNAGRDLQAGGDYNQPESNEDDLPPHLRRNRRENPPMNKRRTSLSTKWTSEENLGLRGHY
Assay: potency of MEX-5 RNA-binding blockers – biochemical, C. elegans, fluorescence polarization, dose response (AID 1960)
Settings: not given

Row | SMILES | EC50
25 | Cc1cccn2c(=O)c3cc(C(=O)NC4CCCC4)c(=N)n(CCc4ccccc4)c3nc12 | > 300 µM (not active)
26 | COc1cccc(=O)c2c(C)oc(C)c12 | > 300 µM (not active)
27 | CN1C(=O)C(=Cc2c[nH]c3ccccc23)C(=O)N(C)C1=O | 151 µM (active)
28 | C=CCN1C(=O)NC(=O)/C(=C/c2c(CCN(C)C(=O)c3ccccc3)cc3c(c2OC)OCO3)C1=O | > 300 µM (not active)
29 | COc1ccc(NC(=O)/C=C/c2cccc(Br)c2)cn1 | 12.4 µM (active)

Target: T2, Polyadenylate-binding protein 1
Assay: MLLE domain peptide-binding blockers, IC50 – biochemical, fluorescence polarization, FITC-PAM2 peptide, dose response (AID 602259)
Type: functional
Settings: read-out: IC50_Mean

Row | SMILES | IC50
30 | Cc1ccc(S(=O)(=O)CCSc2cccc(C(=O)O)c2)cc1 | > 66 µM (inactive)
31 | COc1ccccc1C1CC(c2cccs2)=Nc2ccccc2S1 (centres undefined) | > 66 µM (inactive)
32 | O=S(=O)(NC(=S)NC1CCCCC1)c1ccccc1 | > 66 µM (inactive)

Target: T4, Cytochrome P450 1A2 (Homo sapiens, UniProt P05177);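 note: PubChem cytochrome P450 panel assay, CYP1A2 panel member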
T4 sequence (P05177 whole entry): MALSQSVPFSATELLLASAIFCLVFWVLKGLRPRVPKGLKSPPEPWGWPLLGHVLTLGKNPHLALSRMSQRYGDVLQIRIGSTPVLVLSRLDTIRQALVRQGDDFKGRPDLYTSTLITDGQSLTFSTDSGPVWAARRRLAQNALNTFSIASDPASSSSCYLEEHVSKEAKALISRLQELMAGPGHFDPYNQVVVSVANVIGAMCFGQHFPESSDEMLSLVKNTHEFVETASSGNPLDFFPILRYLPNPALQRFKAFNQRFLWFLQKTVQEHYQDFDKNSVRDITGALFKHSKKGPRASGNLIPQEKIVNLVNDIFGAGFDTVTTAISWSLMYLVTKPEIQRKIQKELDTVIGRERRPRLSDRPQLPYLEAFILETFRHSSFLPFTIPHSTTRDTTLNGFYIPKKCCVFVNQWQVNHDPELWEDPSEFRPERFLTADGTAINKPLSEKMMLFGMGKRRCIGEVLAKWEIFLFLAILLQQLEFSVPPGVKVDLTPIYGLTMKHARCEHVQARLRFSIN
Settings: not given

Row | SMILES | AC50
33 | C[C@@H](C(=O)O)/C(=C/c1ccc2c(c1)OCO2)C(=O)O | 0.316 µM (inconclusive)
34 | COc1ccc(-c2nc(C(=O)N3CCN(C)CC3)sc2-c2ccc(OC)cc2)cc1 [FR-122047] | 31.6 µM (inconclusive)
